How the values were obtained:
[1] = test system: haloperidol-induced catalepsy; assay: haloperidol-induced catalepsy, a model of parkinsonian motor disability; format: in vivo, mice
Text: Furthermore, haloperidol-induced catalepsy, a model of parkinsonian motor disability, is reduced in M4 knockout mice as compared to wild-type controls. […] The reversal by scopolamine was uncommonly robust and more pronounced than we observe with agents targeting a number of other targets being evaluated for potential antiparkinsonian effects, including metabotropic glutamate (mGlu) receptors mGlu4 or mGlu5, A2A adenosine receptors, and NMDA receptors. […] Taken together with the extensive studies of M4 modulation of basal ganglia and motor function, these studies provide compelling evidence that M4 is the dominant mAChR subtype involved in the antiparkinsonian effects of non-selective mAChR antagonists and provide support for discovery and development of selective M4 antagonists for treatment of neurodegenerative disease such as PD, dystonia, tardive dyskinesia and other movement disorders.

locomotor activity = conditions: M4 knockout mice, but not the other four mAChR subtypes (M1-3,5); cited from earlier work
Human M4 = target: T1, Human M4 (Homo sapiens, UniProt P08173); assay: mAChR M4 cell-based functional assay (calcium flux, antagonist mode); conditions: for remaining activity at 30 µM: % ACh maximum at 30 μM, read-out: Emin; for IC50: M4/Gqi5/CHO-K1 cells, concentration-dependent decrease of the EC80 acetylcholine response
T1 construct: expressed in transfected cells; host or cells: CHO-K1 (ATCC), stably co-expressing chimeric G protein Gqi5
T1 sequence (P08173 1-479): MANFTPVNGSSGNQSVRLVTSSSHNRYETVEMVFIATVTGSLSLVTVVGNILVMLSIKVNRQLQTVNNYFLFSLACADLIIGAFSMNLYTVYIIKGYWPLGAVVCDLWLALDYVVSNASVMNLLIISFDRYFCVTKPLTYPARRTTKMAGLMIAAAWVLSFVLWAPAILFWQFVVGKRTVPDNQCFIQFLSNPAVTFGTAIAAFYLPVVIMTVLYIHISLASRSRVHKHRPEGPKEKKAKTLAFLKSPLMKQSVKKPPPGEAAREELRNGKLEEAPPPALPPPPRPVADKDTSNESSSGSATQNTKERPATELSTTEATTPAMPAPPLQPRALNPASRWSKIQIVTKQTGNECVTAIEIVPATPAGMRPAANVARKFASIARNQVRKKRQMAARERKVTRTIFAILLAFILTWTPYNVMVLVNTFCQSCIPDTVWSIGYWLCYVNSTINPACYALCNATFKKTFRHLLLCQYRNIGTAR

SMILES: CN1[C@@H]2C[C@@H](OC(=O)[C@H](CO)c3ccccc3)C[C@H]1[C@@H]1O[C@@H]12 [scopolamine]
- reduction of catalepsy induced by haloperidol ([1]; M4 KO mice): ineffective
- reversal of catalepsy induced by haloperidol ([1]; WT mice): completely reversed
- locomotor-activating effects (locomotor activity): dramatically reduced

SMILES: Fc1ccc(Cl)c(-c2ccc(NCC3CC4(CCN(Cc5ccccc5F)CC4)C3)nn2)c1 [Compound 46, 6-(2-chloro-5-fluoro-phenyl)-N-[[7-[(2-fluorophenyl)methyl]-7-azaspiro[3.5]nonan-2-yl]methyl]pyridazin-3-amine]
- remaining activity at 30 µM (Human M4): 9.19%
- IC50 (Human M4): 780 nM

SMILES: Cc1nn(C)cc1-c1ccc(OC2CC3(CCN(CC4CCSCC4)CC3)C2)nn1 [Compound 29, 2-[6-(1,3-dimethylpyrazol-4-yl)pyridazin-3-yl]oxy-7-(tetrahydrothiopyran-4-ylmethyl)-7-azaspiro[3.5]nonane]
- remaining activity at 30 µM (Human M4): 5.29%
- IC50 (Human M4): 1170 nM

SMILES: Cc1cnn(C)c1-c1ccc(NC2CC3(CCN(CCC(C)(C)C)CC3)C2)nn1 [Compound 2, 7-(3,3-Dimethylbutyl)-N-[6-(2,4-dimethylpyrazol-3-yl)pyridazin-3-yl]-7-azaspiro[3.5]nonan-2-amine]
- remaining activity at 30 µM (Human M4): 3.29%
- IC50 (Human M4): 89 nM

SMILES: Cc1nn(C)cc1-c1ccc(NC2CC3(CCN(CCC(C)(C)C)CC3)C2)nn1 [Compound 1, 7-(3,3-Dimethylbutyl)-N-[6-(1,3-dimethylpyrazol-4-yl)pyridazin-3-yl]-7-azaspiro[3.5]nonan-2-amine]
- remaining activity at 30 µM (Human M4): 3.48%

SMILES: Cc1cnn(C)c1-c1ccc(OC2CC3(CCN(Cc4ccccc4)CC3)C2)nn1 [Compound 37, 7-benzyl-2-[6-(2,4-dimethylpyrazol-3-yl)pyridazin-3-yl]oxy-7-azaspiro[3.5]nonane]
- remaining activity at 30 µM (Human M4): 10.8%
- IC50 (Human M4): 3450 nM

SMILES: Fc1ccc(Cl)c(-c2ccc(OC3CC4(CCN(CC5CCSCC5)CC4)C3)nn2)c1 [Compound 21, 2-[6-(2-chloro-5-fluoro-phenyl)pyridazin-3-yl]oxy-7-(tetrahydrothiopyran-4-ylmethyl)-7-azaspiro[3.5]nonane]
- remaining activity at 30 µM (Human M4): 3.22%
- IC50 (Human M4): 530 nM

SMILES: Cc1cnn(C)c1-c1ccc(NC2CC3(CCN(CC4CC5C=CC4C5)CC3)C2)nn1 (centres unmarked) [Compound 8, 7-(5-bicyclo[2.2.1]hept-2-enylmethyl)-N-[6-(2,4-dimethylpyrazol-3-yl)pyridazin-3-yl]-7-azaspiro[3.5]nonan-2-amine]
- remaining activity at 30 µM (Human M4): 2.86%
- IC50 (Human M4): 10 nM

SMILES: Cc1cccnc1CN1CCC2(CC1)CC(Nc1ccc(-c3cn(C)nc3C)nn1)C2 [Compound 7, N-[6-(1,3-dimethyipyrazol-4-yl)pyridazin-3-yl]-7-[(3-methyl-2-pyridyl)methyl]-7-azaspiro[3.5]nonan-2-amine]
- remaining activity at 30 µM (Human M4): 9.14%
- IC50 (Human M4): 1740 nM

SMILES: Cc1nn(C)cc1-c1ccc(NCC2CC3(CCN(Cc4ccccn4)CC3)C2)nn1 [Compound 55, 6-(1,3-dimethylpyrazol-4-yl)-N-[[7-(2-pyridylmethyl)-7-azaspiro[3.5]nonan-2-yl]methyl]pyridazin-3-amine]
- remaining activity at 30 µM (Human M4): 34.3%
- IC50 (Human M4): > 10000 nM
